Measured values: patent US20040122045A1, “Timing curation of administration of adenosine A1/A2 agonist for cardioprotection” (Aventis Pharmaceuticals Inc., priority 2001, published 2004)
Where two headings read alike, the source gives them in different places.

Experiments:
in situ rabbit hearts = assay: Infarct size after 30 min regional ischemia/3 h reperfusion, in situ rabbit hearts; assay type: in vivo, New Zealand White rabbits; settings: for Infarct size, percentage of the risk zone: AMP 579 30 μg/kg iv bolus + 3 μg/kg/min; for Protection against infarction: Adenosine 150, 300 or 400 μg/kg/min; for Infarct size (% of risk zone): starting 10 minutes before reperfusion
Protocol: Body temperature was maintained at 38-39° C. […] Ischemia was confirmed by appearance of cyanosis.
After 3 h of reperfusion, the rabbit was given an overdose of pentobarbital and the heart was quickly removed from the chest, mounted on a Langendorff apparatus, and perfused with saline to wash out blood. Then the coronary artery was reoccluded, and 5 ml of 0.1% zinc/cadmium sulfide particles (1-10 μm diameter, Duke Scientific Corp, Palo Alto, Calif.) were infused into the perfusate to demarcate the risk zone as the area of tissue without fluorescence. The heart was weighed, frozen, and cut into 2.5-mm-thick slices. The slices were incubated in 1% triphenyltetrazolium chloride (TTC) in sodium phosphate buffer at 37° C. for 20 min. The slices were immersed in 10% formalin to enhance the contrast between stained (viable) and unstained (necrotic) tissue and then squeezed between glass plates spaced exactly 2 mm apart. The myocardium at risk was identified by illuminating the slices with ultraviolet light. The infarcted and risk zone areas were traced on a clear acetate sheet and quantified with planimetry by an investigator blinded to the treatment. The areas were converted into volumes by multiplying the areas by slice thickness. Infarct size is expressed as a percentage of the risk zone.
The control group received no drug treatment.

rabbit heart = settings: cited from earlier work
A2a receptor subtype = A2a receptor subtype (Homo sapiens, UniProt P29274); settings: cited from earlier work
chick cardiomyocytes = settings: cited from earlier work
[1] = Hemodynamics (heart rate, mean arterial pressure) during ischemia/reperfusion
rabbit hearts = settings: cited from earlier work
A1 receptor subtype = target: T1, A1 receptor subtype (Homo sapiens, UniProt P30542); settings: cited from earlier work
T1 sequence (P30542 1-326): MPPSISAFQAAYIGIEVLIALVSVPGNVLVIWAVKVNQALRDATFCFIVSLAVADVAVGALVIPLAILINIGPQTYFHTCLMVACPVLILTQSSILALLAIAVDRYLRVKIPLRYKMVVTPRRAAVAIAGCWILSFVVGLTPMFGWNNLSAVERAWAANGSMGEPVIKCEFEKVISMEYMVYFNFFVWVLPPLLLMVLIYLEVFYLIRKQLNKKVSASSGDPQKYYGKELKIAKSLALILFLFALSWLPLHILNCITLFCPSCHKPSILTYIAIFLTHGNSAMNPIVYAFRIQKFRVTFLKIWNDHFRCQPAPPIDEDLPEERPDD

[2] = AMP (30 min): 30 μg/kg iv bolus + 3 μg/kg/min, started 10 min before reperfusion, 30 min, Baseline
[3] = AMP (30 min): started 10 min before reperfusion, 30 min, Ischemia (end of 30 min)
[4] = AMP (30 min): started 10 min before reperfusion, 30 min, Rep 30′
[5] = AMP (30 min): started 10 min before reperfusion, 30 min, Rep 90′
[6] = AMP (30 min): started 10 min before reperfusion, 30 min, Rep 180′
[7] = AMP (40 min): 30 μg/kg iv bolus + 3 μg/kg/min, started 10 min before reperfusion, 40 min, Baseline
[8] = AMP (40 min): started 10 min before reperfusion, 40 min, Ischemia (end of 30 min)
[9] = AMP (40 min): started 10 min before reperfusion, 40 min, Rep 30′
[10] = AMP (40 min): started 10 min before reperfusion, 40 min, Rep 90′
[11] = AMP (40 min): started 10 min before reperfusion, 40 min, Rep 180′
[12] = AMP (70 min, late): 30 μg/kg iv bolus + 3 μg/kg/min, started 10 min after reperfusion, 70 min, Baseline
[13] = AMP (70 min, late): started 10 min after reperfusion, 70 min, Ischemia (end of 30 min)
[14] = AMP (70 min, late): started 10 min after reperfusion, 70 min, Rep 30′
[15] = AMP (70 min, late): started 10 min after reperfusion, 70 min, Rep 90′
[16] = AMP (70 min, late): started 10 min after reperfusion, 70 min, Rep 180′
[17] = AMP (70 min, onset): 30 μg/kg iv bolus + 3 μg/kg/min, started at onset of reperfusion, 70 min, Baseline
[18] = AMP (70 min, onset): started at onset of reperfusion, 70 min, Ischemia (end of 30 min)
[19] = AMP (70 min, onset): started at onset of reperfusion, 70 min, Rep 30′
[20] = AMP (70 min, onset): started at onset of reperfusion, 70 min, Rep 90′
[21] = AMP (70 min, onset): started at onset of reperfusion, 70 min, Rep 180′
[22] = Adenosine 150 μg/kg/min iv, 70 min starting 10 min before reperfusion
[23] = Adenosine 300 μg/kg/min iv, 70 min starting 10 min before reperfusion
[24] = Adenosine 400 μg/kg/min iv, 70 min starting 10 min before reperfusion

Chain of A2a receptor subtype (P29274 whole entry): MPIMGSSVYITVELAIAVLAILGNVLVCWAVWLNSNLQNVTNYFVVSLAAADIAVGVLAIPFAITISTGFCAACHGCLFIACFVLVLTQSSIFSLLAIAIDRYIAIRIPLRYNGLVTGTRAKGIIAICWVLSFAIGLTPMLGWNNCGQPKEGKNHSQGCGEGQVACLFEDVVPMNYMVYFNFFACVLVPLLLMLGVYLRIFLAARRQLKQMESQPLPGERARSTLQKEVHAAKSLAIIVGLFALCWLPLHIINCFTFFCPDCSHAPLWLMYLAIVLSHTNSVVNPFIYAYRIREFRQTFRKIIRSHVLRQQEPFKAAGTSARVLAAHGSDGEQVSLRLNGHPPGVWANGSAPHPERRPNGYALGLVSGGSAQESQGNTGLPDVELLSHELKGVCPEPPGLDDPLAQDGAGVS

Q: For CCNC(=O)[C@H]1CC(n2cnc3c(N[C@H](CC)Cc4sccc4Cl)ccnc32)[C@H](O)[C@@H]1O (relative stereo) [AMP 579, [1S-[1α,2β,3β,4α(S*)]]-4-[7-[[3-chloro-2-thienyl)methyl]propyl]amino]-3H-imidazo[4,5-b]pyridin-3-yl]-N-ethyl-2,3-dihydroxycyclopentanecarboxamide], which “Infarct size, percentage of the risk zone” value (“Infarct size, percentage” for short) (in situ rabbit hearts; 70 min, started 10 min after reperfusion) is on record?
A: The value was 27.6±7.2%.

Q: What about the “Infarct size, percentage” value (in situ rabbit hearts; 70 min, started at onset of reperfusion, p<0.05 vs. control) of the same compound?
A: Its value is 13.0±1.9%.

Q: What about the “Infarct size, percentage” value (in situ rabbit hearts; started 10 min before reperfusion, 30 min infusion) of the same compound?
A: Its value is 30.1±1.4%.

Q: And the “Infarct size, percentage” value (in situ rabbit hearts; started 10 min before reperfusion, 40 min infusion)?
A: The value was 24.8±5.9%.

Q: And the Infarct size (in situ rabbit hearts; AMP (30 min): 30 μg/kg iv bolus + 3 μg/kg/min, started 10 min before reperfusion, 30 min)?
A: Its Infarct size is 0.27 ± 0.05 cm^3.

Q: And the Infarct size (in situ rabbit hearts; AMP (40 min): 30 μg/kg iv bolus + 3 μg/kg/min, started 10 min before reperfusion, 40 min)?
A: The Infarct size was 0.27 ± 0.07 cm^3.

Q: And the Infarct size (in situ rabbit hearts; AMP (70 min, late): 30 μg/kg iv bolus + 3 μg/kg/min, started 10 min after reperfusion, 70 min)?
A: The Infarct size was 0.28 ± 0.07 cm^3.

Q: And the Infarct size (in situ rabbit hearts; AMP (70 min, onset): 30 μg/kg iv bolus + 3 μg/kg/min, started at onset of reperfusion, 70 min, * p<0.05 vs. control)?
A: The Infarct size was 0.14 ± 0.03* cm^3.

Q: What about the “Onset of contracture that accompanies reperfusion” value (rabbit heart) of the same compound?
A: The value was “greatly attenuates the onset of contracture”.

Q: And the Ki (A2a receptor subtype)?
A: The Ki was 56 nM.

Q: And the “Burst of free radicals at reperfusion” value (chick cardiomyocytes; 1 μM)?
A: Its value is “virtually eliminated it”.

Q: What about the HR [1, 2] of the same compound?
A: The HR was 271 ± 3 beats/min.

Q: What about the MAP [1, 2] of the same compound?
A: Its MAP is 91.8 ± 2.8 mmHg.

Q: What about the HR [1, 3] of the same compound?
A: Its HR is 247 ± 5 beats/min.

Q: And the MAP [1, 3]?
A: Its MAP is 73.7 ± 3.9 mmHg.

Q: And the HR [1, 4]?
A: Its HR is 241 ± 7 beats/min.

Q: And the MAP [1, 4]?
A: The MAP was 74.8 ± 5.1 mmHg.

Q: And the HR [1, 5]?
A: Its HR is 256 ± 11 beats/min.

Q: And the MAP [1, 5]?
A: The MAP was 77.7 ± 5.7 mmHg.

Q: What about the HR [1, 6] of the same compound?
A: Its HR is 265 ± 6 beats/min.

Q: What about the MAP [1, 6] of the same compound?
A: Its MAP is 77.9 ± 5.2 mmHg.

Q: What about the HR [1, 7] of the same compound?
A: The HR was 271 ± 11 beats/min.

Q: What about the MAP [1, 7] of the same compound?
A: Its MAP is 99.3 ± 2.4 mmHg.

Q: What about the HR [1, 8] of the same compound?
A: Its HR is 268 ± 7 beats/min.

Q: What about the MAP [1, 8] of the same compound?
A: The MAP was 76.8 ± 6.6 mmHg.

Q: And the HR [1, 9]?
A: The HR was 250 ± 14 beats/min.

Q: And the MAP [1, 9]?
A: Its MAP is 70.4 ± 8.1 mmHg.

Q: What about the HR [1, 10] of the same compound?
A: Its HR is 268 ± 13 beats/min.

Q: And the MAP [1, 10]?
A: Its MAP is 83.5 ± 5.0 mmHg.

Q: And the HR [1, 11]?
A: The HR was 268 ± 10 beats/min.

Q: What about the MAP [1, 11] of the same compound?
A: Its MAP is 81.8 ± 4.5 mmHg.

Q: And the HR [1, 12]?
A: Its HR is 285 ± 3 beats/min.

Q: What about the MAP [1, 12] of the same compound?
A: The MAP was 96.9 ± 2.9 mmHg.

Q: And the HR [1, 13]?
A: Its HR is 281 ± 1 beats/min.

Q: What about the MAP [1, 13] of the same compound?
A: The MAP was 84.6 ± 4.5 mmHg.

Q: And the HR [1, 14]?
A: Its HR is 243 ± 8 beats/min.

Q: And the MAP [1, 14]?
A: Its MAP is 57.4 ± 5.6 mmHg.

Q: What about the HR [1, 15] of the same compound?
A: Its HR is 240 ± 6 beats/min.

Q: What about the MAP [1, 15] of the same compound?
A: Its MAP is 69.0 ± 4.9 mmHg.

Q: What about the HR [1, 16] of the same compound?
A: The HR was 259 ± 10 beats/min.

Q: And the MAP [1, 16]?
A: The MAP was 68.1 ± 3.6 mmHg.

Q: What about the HR [1, 17] of the same compound?
A: The HR was 262 ± 6 beats/min.

Q: And the MAP [1, 17]?
A: Its MAP is 98.6 ± 3.2 mmHg.

Q: What about the HR [1, 18] of the same compound?
A: The HR was 270 ± 9 beats/min.

Q: And the MAP [1, 18]?
A: Its MAP is 89.0 ± 3.2 mmHg.

Q: What about the HR [1, 19] of the same compound?
A: The HR was 233 ± 9 beats/min.

Q: And the MAP [1, 19]?
A: The MAP was 55.6 ± 3.9 mmHg.

Q: What about the HR [1, 20] of the same compound?
A: The HR was 235 ± 16 beats/min.

Q: And the MAP [1, 20]?
A: The MAP was 70.8 ± 4.5 mmHg.

Q: What about the HR [1, 21] of the same compound?
A: The HR was 264 ± 10 beats/min.

Q: What about the MAP [1, 21] of the same compound?
A: The MAP was 79.6 ± 3.9 mmHg.

Q: What about the Hypotensive effect ([1]; infusion commenced before the onset of reperfusion (AMP 30 min and AMP 40 min groups)) of the same compound?
A: Its Hypotensive effect is “additional mild hypotensive effect”.

Q: And the “Protection against infarction (dose required)” value (rabbit hearts; 3 μg/kg/min)?
A: The value was “protective”.

Q: What about the “Infarct size, percentage” value (rabbit hearts; 70-min infusion starting 10 min prior to reperfusion, previous study (Xu et al.)) of the same compound?
A: Its value is 12.3±1.0%.

Q: What about the Ki (A1 receptor subtype) of the same compound?
A: The Ki was 5 nM.

Q: With Nc1ncnc2c1ncn2[C@@H]1O[C@H](CO)[C@@H](O)[C@H]1O [Adenosine] as the compound, how does the “% infarction of the risk zone” value (in situ rabbit hearts; [22]) read?
A: The value was 32.6 ± 5.8%.

Q: And the Infarct size (in situ rabbit hearts; [22])?
A: The Infarct size was 0.36 ± 0.09 cm^3.

Q: And the “% infarction of the risk zone” value (in situ rabbit hearts; [23])?
A: Its value is 34.4 ± 9.5%.

Q: And the Infarct size (in situ rabbit hearts; [23])?
A: The Infarct size was 0.36 ± 0.11 cm^3.

Q: And the “% infarction of the risk zone” value (in situ rabbit hearts; [24])?
A: Its value is 29.2 ± 8.0%.

Q: What about the Infarct size (in situ rabbit hearts; [24]) of the same compound?
A: The Infarct size was 0.30 ± 0.08 cm^3.

Q: And the Protection against infarction (in situ rabbit hearts; 70 min starting 10 min before reperfusion)?
A: Its Protection against infarction is “No protection was seen”.

Q: What about the Protection against infarction (in situ rabbit hearts; 70 min starting 10 min before reperfusion, listed as adenosine) of the same compound?
A: The Protection against infarction was “none of the doses was protective”.

Q: What about the “Infarct size (% of risk zone)” value (in situ rabbit hearts; Infusion rate 300 ug/kg/min) of the same compound?
A: The value was 34.4 ± 9.5%.

Q: What about the “Infarct size (% of risk zone)” value (in situ rabbit hearts; Infusion rate 400 ug/kg/min) of the same compound?
A: Its value is 29.2 ± 8.0%.

Q: What about the “Burst of free radicals at reperfusion” value (chick cardiomyocytes; 100 μM (a receptor saturating concentration)) of the same compound?
A: The value was “failed to block the burst of free radicals at reperfusion”.
